What was measured:
[1] = system: Human Ovarian Carcinoma Cisplatin Resistant (A2780cisR) cell line; test: MTT cytotoxicity, A2780cisR; assay type: cell-based; conditions: 72 h exposure, mean ± SD
Excerpt: Human ovarian carcinoma (A2780 and A2780cisR) cell lines were obtained from the European Collection of Cell Cultures. The Human Embryonic Kidney 293T (HEK 293T) cell line was obtained from the ATCC (Sigma, Buchs, Switzerland). Penicillin–streptomycin, RPMI 1640 GlutaMAX (where RPMI = Roswell Park Memorial Institute), and DMEM GlutaMAX media (where DMEM = Dulbecco’s modified Eagle medium) were obtained from Life Technologies, and fetal bovine serum (FBS) was obtained from Sigma. The cells were cultured in RPMI 1640 GlutaMAX (A2780 and A2780cisR) and DMEM GlutaMAX (HEK 293T) media containing 10% heat-inactivated FBS and 1% penicillin–streptomycin at 37 °C and CO2 (5%). The A2780cisR cell line was routinely treated with cisplatin (2 μM) in the media to maintain cisplatin resistance. The cytotoxicity was determined using the 3-(4,5-dimethyl-2-thiazolyl)-2,5-diphenyl-2H-tetrazolium bromide (MTT) assay.[42] Cells were seeded in flat-bottomed 96-well plates as a suspension in a prepared medium (100 μL aliquots and approximately 4300 cells/well) and preincubated for 24 h. Stock solutions of compounds were prepared in DMSO and were diluted in the medium. The solutions were sequentially diluted to give a final DMSO concentration of 0.5% and a final compound concentration range of 0–200 μM. Cisplatin was tested as a positive (0–100 μM) control. The compounds were placed in the preincubated 96-well plates in 100 μL aliquots, and the plates were incubated for a further 72 h. MTT (20 μL, 5 mg/mL in Dulbecco’s phosphate buffered saline) was placed in the cells, and the plates were incubated for a further 4 h. The culture medium was aspirated, and the purple formazan crystals, formed by the mitochondrial dehydrogenase activity of vital cells, were dissolved in DMSO (100 μL/well). The absorbance of the resulting solutions, directly proportional to the number of surviving cells, was quantified at 590 nm using a SpectroMax M5e multimode microplate reader (using SoftMax Pro software, version 6.2.2). The percentage of surviving cells was calculated from the absorbance of wells corresponding to the untreated control cells. The reported IC50 values are based on the means from two independent experiments, each comprising four tests per concentration level.

[2] = target: T1, bovine serum albumin (BSA) (Bos taurus, UniProt P02769); test: BSA fluorescence quenching titration; assay type: binding; conditions: pH 7.0 buffer, NaCl 0.1 M, NaCac 0.01 M; for Log K (binding constant, compound/BSA): 1:1 model, 25 °C
T1 construct: bovine serum albumin (BSA, lyophilized powder, crystallized, ≥98.0%); purchased Merck
T1 sequence (P02769 25-607): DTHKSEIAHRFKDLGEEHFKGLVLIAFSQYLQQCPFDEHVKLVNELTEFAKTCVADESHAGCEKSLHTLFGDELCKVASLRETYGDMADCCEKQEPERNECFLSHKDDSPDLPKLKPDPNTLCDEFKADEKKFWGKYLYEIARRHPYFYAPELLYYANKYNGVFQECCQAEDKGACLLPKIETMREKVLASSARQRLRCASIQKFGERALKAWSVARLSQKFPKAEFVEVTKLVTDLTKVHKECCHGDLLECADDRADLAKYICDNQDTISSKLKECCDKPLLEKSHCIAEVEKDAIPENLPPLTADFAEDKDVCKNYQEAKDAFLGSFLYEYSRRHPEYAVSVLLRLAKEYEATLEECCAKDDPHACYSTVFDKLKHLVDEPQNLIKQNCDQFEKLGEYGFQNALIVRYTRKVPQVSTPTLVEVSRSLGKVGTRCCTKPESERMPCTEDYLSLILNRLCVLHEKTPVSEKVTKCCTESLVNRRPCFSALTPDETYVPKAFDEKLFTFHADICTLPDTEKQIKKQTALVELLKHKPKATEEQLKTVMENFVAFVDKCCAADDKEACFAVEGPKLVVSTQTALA
Excerpt: The interaction of [4]CF3SO3 and [9]CF3SO3 with bovine serum albumin (BSA) as a model protein was also explored. The addition of the metal complex to the protein in pH buffer solution (pH 7.0 buffer; NaCl 0.1 M, NaCac 0.01 M) produced a quenching of the intrinsic fluorescence emission of the latter. A data fit, according to the Stern–Volmer equation,[11] provided quenching constants (KSV) values equal to ca. 3.4 × 10^4 for both systems, indicative that a binding event occurs (Figure S1).[32] […] More precisely, the binding constant (10^6) appears to be high enough to ensure adduct formation but also weak enough to release the complex once the biotarget is reached; this is assumed to be the optimal condition for BSA-driven transport and diffusion of a drug.[34]
Ethidium bromide (EB, ≥98.0%), bovine serum albumin (BSA, lyophilized powder, crystallized, ≥98.0%), and natural double-stranded DNA from calf thymus (DNA, lyophilized powder, Na^+ salt in the form of fibers) were purchased from Merck, while anhydrous guanosine 5′-monophosphate disodium salt (Na2[GMP], >98.0%) was purchased from TCI Chemicals. Prior to use, DNA was sonicated to ca. 500 base pair length (MSE-Sonyprep sonicator, 7 cycles of 10 s sonication + 20 s pause at an amplitude of 14 μm, solution kept in ice bath—the final length was checked by agarose gel electrophoresis tests on the sample using a 100 bp DNA ladder) to produce stock solutions in water (ca. 2 mM). Stock solutions of EB and BSA were prepared by weighing directly in the buffer (NaCl 0.1 M, NaCac 0.01M, pH 7.0—NaCac is sodium cacodylate). […] Molar concentrations of solutions of EB (CEB), BSA (CBSA), and DNA (CDNA) were determined by absorbance measurements (εEB^480 nm = 5700 M^–1 cm^–1; εBSA^278 nm = 44000 M^–1 cm^–1; εDNA^260 nm = 13200 M^–1 cm^–1 for a concentration expressed in base pairs). […] In EB/DNA exchange experiments, EB was added to DNA until the fluorescence emission at λex = 520 nm/λem = 595 nm (diagnostic wavelengths for the DNA-intercalated EB only) started to reach the plateau (CEB = 5.60 × 10^–5 M, CDNA = 1.15 × 10^–4 M). […] The total maximum amount of DMSO was checked (<3%) as well as the metal complex absorbance at the set wavelengths (A < 0.05 to ensure negligible inner filter effects). Note that a blank test was carried out by adding DMSO to the EB/DNA mixture, in order to quantify fluorescence changes due only to dilution/solvent effects. For BSA fluorescence titrations, the working solution of the metal complex (4.42 × 10^–5 M for [4]CF3SO3, 4.59 × 10^–5 M for [9]CF3SO3, both in the buffer) was added to a 3.34 × 10^–7 M BSA solution in the buffer (λex = 280 nm, λem = 345 nm, dilution from stock such that the DMSO content is negligible). […]

Substance | IC50 [1] [µM] | Log K (binding constant, compound/BSA) [2] | Stern–Volmer quenching constant (KSV) [2]
[Fe2Cp2(CO)(μ-CO){μ-η^1:η^3-Cγ(3-C6H4NHC(=O)(CH2)3C6H4N(CH2CH2Cl)2)CβHCαNMe2}]CF3SO3 [[9]CF3SO3] | 3.8 ± 0.3 | 6.5 ± 0.1 | ca. 3.4 × 10^4
[Fe2Cp2(CO)(μ-CO){μ-η^1:η^3-Cγ(3-C6H4OC(=O)C6H4OC(=O)Me)CβHCαNMe(Xyl)}]CF3SO3 [[4]CF3SO3] | 2.6 ± 0.4 | 5.9 ± 0.1 | ca. 3.4 × 10^4
